Source: PubChem BioAssay (NCI)
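GI50 marks 50% less growth. TGI denotes the concentration required for complete inhibition of growth.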

Columns and labels:
Experiment in all cases: DTP human tumour cell line panel, 384-well format
A549 NSCLC = tested on: A549 NSCLC
HCT-116 colon = tested on: HCT-116 colon
NCI-H322M lung = tested on: NCI-H322M lung
UACC-62 melanoma = tested on: UACC-62 melanoma
BT-549 breast = tested on: BT-549 breast
M14 melanoma = tested on: M14 melanoma
NCI/ADR-RES ovarian = tested on: NCI/ADR-RES ovarian
SK-MEL-28 melanoma = tested on: SK-MEL-28 melanoma
NCI-H460 NSCLC = tested on: NCI-H460 NSCLC
HT29 colon = tested on: HT29 colon
HOP-92 NSCLC = tested on: HOP-92 NSCLC
MOLT-4 leukemia = tested on: MOLT-4 leukemia
RPMI-8226 leukemia = tested on: RPMI-8226 leukemia
UACC-257 melanoma = tested on: UACC-257 melanoma
SF-539 CNS = tested on: SF-539 CNS
RXF 393 renal = tested on: RXF 393 renal
UO-31 renal = tested on: UO-31 renal
SW-620 colon = tested on: SW-620 colon
HOP-62 NSCLC = tested on: HOP-62 NSCLC
HS 578T breast = tested on: HS 578T breast
A498 renal = tested on: A498 renal
DU-145 prostate = tested on: DU-145 prostate
TK-10 renal = tested on: TK-10 renal
T-47D breast = tested on: T-47D breast
SK-MEL-5 melanoma = tested on: SK-MEL-5 melanoma
CAKI-1 renal = tested on: CAKI-1 renal
MCF7 breast = tested on: MCF7 breast
OVCAR-4 ovarian = tested on: OVCAR-4 ovarian
OVCAR-8 ovarian = tested on: OVCAR-8 ovarian
EKVX NSCLC = tested on: EKVX NSCLC
OVCAR-5 ovarian = tested on: OVCAR-5 ovarian
SN12C renal = tested on: SN12C renal
ACHN renal = tested on: ACHN renal
HCC-2998 colon = tested on: HCC-2998 colon
COLO 205 colon = tested on: COLO 205 colon
HCT-15 colon = tested on: HCT-15 colon
MALME-3M melanoma = tested on: MALME-3M melanoma
SF-295 CNS = tested on: SF-295 CNS
IGROV1 ovarian = tested on: IGROV1 ovarian
MDA-MB-231 breast = tested on: MDA-MB-231 breast
SK-OV-3 ovarian = tested on: SK-OV-3 ovarian
U251 glioblastoma = tested on: U251 glioblastoma
LOX IMVI melanoma = tested on: LOX IMVI melanoma
PC-3 prostate = tested on: PC-3 prostate
K-562 leukemia = tested on: K-562 leukemia
NCI-H23 lung = tested on: NCI-H23 lung
SF-268 CNS = tested on: SF-268 CNS
CCRF-CEM leukemia = tested on: CCRF-CEM leukemia
KM12 colon = tested on: KM12 colon
MDA-MB-435 melanoma = tested on: MDA-MB-435 melanoma
SNB-75 CNS = tested on: SNB-75 CNS
786-0 renal = tested on: 786-0 renal
MDA-MB-468 breast = tested on: MDA-MB-468 breast
NCI-H522 lung = tested on: NCI-H522 lung
HL-60(TB) leukemia = tested on: HL-60(TB) leukemia
NCI-H226 lung = tested on: NCI-H226 lung
SNB-19 CNS = tested on: SNB-19 CNS
OVCAR-3 ovarian = tested on: OVCAR-3 ovarian

For `O=C(Nc1ccc(-c2ccnc(Nc3ccc(N4CCOCC4)cc3)n2)cc1)C1CCCN1` (stereo unspecified), the GI50 (A549 NSCLC) was 4.69 µM, the TGI (A549 NSCLC) was 17.8 µM and the GI50 (HCT-116 colon) was 1.5 µM. For the same compound, the TGI (HCT-116 colon) was 11.6 µM, the GI50 (NCI-H322M lung) was 10.4 µM and the TGI (NCI-H322M lung) was 22.8 µM. For the same compound, the GI50 (UACC-62 melanoma) was 3.1 µM, the TGI (UACC-62 melanoma) was 16.8 µM and the GI50 (BT-549 breast) was 3.78 µM. It also gave a TGI (BT-549 breast) of 14.1 µM, a GI50 (M14 melanoma) of 5.63 µM and a TGI (M14 melanoma) of 18.2 µM. For the same compound, the GI50 (NCI/ADR-RES ovarian) was 7.15 µM, the TGI (NCI/ADR-RES ovarian) was 21.9 µM and the GI50 (SK-MEL-28 melanoma) was 7.45 µM. For the same compound, the TGI (SK-MEL-28 melanoma) was 20.5 µM, the GI50 (NCI-H460 NSCLC) was 1.65 µM and the TGI (NCI-H460 NSCLC) was 10.9 µM. It also gave a GI50 (HT29 colon) of 2.22 µM, a TGI (HT29 colon) of 10.8 µM and a GI50 (HOP-92 NSCLC) of 4.9 µM. For the same compound, the TGI (HOP-92 NSCLC) was 20.2 µM, the GI50 (MOLT-4 leukemia) was 0.439 µM and the TGI (MOLT-4 leukemia) was 1.56 µM. It also gave a GI50 (RPMI-8226 leukemia) of 1.29 µM, a TGI (RPMI-8226 leukemia) of 10.5 µM and a GI50 (UACC-257 melanoma) of 2.46 µM. The TGI (UACC-257 melanoma) was 5.49 µM, the GI50 (SF-539 CNS) was 3.89 µM and the TGI (SF-539 CNS) was 15.2 µM. The GI50 (RXF 393 renal) was 1.6 µM, the TGI (RXF 393 renal) was 12.1 µM and the GI50 (UO-31 renal) was 3.96 µM. For the same compound, the TGI (UO-31 renal) was 15.8 µM, the GI50 (SW-620 colon) was 5.25 µM and the TGI (SW-620 colon) was 16 µM. It also gave a GI50 (HOP-62 NSCLC) of 11.4 µM, a TGI (HOP-62 NSCLC) of 24.7 µM and a GI50 (HS 578T breast) of 4.67 µM. For the same compound, the TGI (HS 578T breast) was 16.7 µM, the GI50 (A498 renal) was 6.48 µM and the TGI (A498 renal) was 18.9 µM. For the same compound, the GI50 (DU-145 prostate) was 4.54 µM, the TGI (DU-145 prostate) was 15.4 µM and the GI50 (TK-10 renal) was 2.78 µM. For the same compound, the TGI (TK-10 renal) was 19.2 µM, the GI50 (T-47D breast) was 5.28 µM and the TGI (T-47D breast) was 15.8 µM. It also gave a GI50 (SK-MEL-5 melanoma) of 0.687 µM, a TGI (SK-MEL-5 melanoma) of 14.2 µM and a GI50 (CAKI-1 renal) of 4.41 µM. It also gave a TGI (CAKI-1 renal) of 15.6 µM, a GI50 (MCF7 breast) of 4.63 µM and a TGI (MCF7 breast) of 17.6 µM. It also gave a GI50 (OVCAR-4 ovarian) of 14.5 µM, a TGI (OVCAR-4 ovarian) of 28.7 µM and a GI50 (OVCAR-8 ovarian) of 5.11 µM. For the same compound, the TGI (OVCAR-8 ovarian) was 18.1 µM, the GI50 (EKVX NSCLC) was 11.9 µM and the TGI (EKVX NSCLC) was 24.9 µM. For the same compound, the GI50 (OVCAR-5 ovarian) was 12.4 µM, the TGI (OVCAR-5 ovarian) was 25.6 µM and the GI50 (SN12C renal) was 3.6 µM. It also gave a TGI (SN12C renal) of 17 µM, a GI50 (ACHN renal) of 4.76 µM and a TGI (ACHN renal) of 17.6 µM. The GI50 (HCC-2998 colon) was 2.46 µM, the TGI (HCC-2998 colon) was 8.76 µM and the GI50 (COLO 205 colon) was 2.68 µM. For the same compound, the TGI (COLO 205 colon) was 17.4 µM, the GI50 (HCT-15 colon) was 1.25 µM and the TGI (HCT-15 colon) was 15 µM. It also gave a GI50 (MALME-3M melanoma) of 3.88 µM, a TGI (MALME-3M melanoma) of 15.4 µM and a GI50 (SF-295 CNS) of 7.63 µM. For the same compound, the TGI (SF-295 CNS) was 21.3 µM, the GI50 (IGROV1 ovarian) was 3.52 µM and the TGI (IGROV1 ovarian) was 16.7 µM. It also gave a GI50 (MDA-MB-231 breast) of 0.87 µM, a TGI (MDA-MB-231 breast) of 17.3 µM and a GI50 (SK-OV-3 ovarian) of 3.29 µM. The TGI (SK-OV-3 ovarian) was 16.5 µM, the GI50 (U251 glioblastoma) was 3.9 µM and the TGI (U251 glioblastoma) was 17 µM. The GI50 (LOX IMVI melanoma) was 1.74 µM, the TGI (LOX IMVI melanoma) was 7.69 µM and the GI50 (PC-3 prostate) was 5.86 µM. For the same compound, the TGI (PC-3 prostate) was 19.7 µM, the GI50 (K-562 leukemia) was 1.39 µM and the TGI (K-562 leukemia) was 10.9 µM. It also gave a GI50 (NCI-H23 lung) of 13.7 µM, a TGI (NCI-H23 lung) of 27.1 µM and a GI50 (SF-268 CNS) of 0.204 µM. It also gave a TGI (SF-268 CNS) of 0.857 µM, a GI50 (CCRF-CEM leukemia) of 1.79 µM and a TGI (CCRF-CEM leukemia) of 10.1 µM. For the same compound, the GI50 (KM12 colon) was 8 µM, the TGI (KM12 colon) was 21.1 µM and the GI50 (MDA-MB-435 melanoma) was 7.37 µM. The TGI (MDA-MB-435 melanoma) was 19.8 µM, the GI50 (SNB-75 CNS) was 4.17 µM and the TGI (SNB-75 CNS) was 15.3 µM. It also gave a GI50 ([…]-0 renal) of 2.82 µM, a TGI (786-0 renal) of 11.7 µM and a GI50 (MDA-MB-468 breast) of 2.02 µM. For the same compound, the TGI (MDA-MB-468 breast) was 8.28 µM, the GI50 (NCI-H522 lung) was 2.88 µM and the TGI (NCI-H522 lung) was 6.72 µM. The GI50 (HL-60(TB) leukemia) was 1.56 µM, the TGI (HL-60(TB) leukemia) was 3.22 µM and the GI50 (NCI-H226 lung) was 1.24 µM. For the same compound, the TGI (NCI-H226 lung) was 10.6 µM, the GI50 (SNB-19 CNS) was 11.4 µM and the TGI (SNB-19 CNS) was 26.6 µM. It also gave a GI50 (OVCAR-3 ovarian) of 12.8 µM and a TGI (OVCAR-3 ovarian) of 26.2 µM.
